Assay results as given in ChEMBL document CHEMBL1201862, “PubChem BioAssay data set” (2004).
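Results reflect a 48-hour exposure of cells in 96-well plates to compound at five concentrations. Here, GI50 denotes the concentration required for 50% inhibition of growth.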 Active and inactive are the calls of the source. No stated cut-off is given here; in the data, active = GI50 up to about 1.1 µM and inactive = higher.

Key:
Experiment in all cases: growth of human tumour cells (NCI), 48 h
M19-MEL = system: M19-MEL
HCT-15 = system: HCT-15
SF-539 = system: SF-539
SK-MEL-5 = system: SK-MEL-5
IGROV-1 = system: IGROV-1
TK-10 = system: TK-10
UO-31 = system: UO-31
EKVX = system: EKVX
SNB-78 = system: SNB-78
NCI-H522 = system: NCI-H522
RPMI-8226 = system: RPMI-8226
SK-MEL-2 = system: SK-MEL-2
A549 = system: A549
COLO 205 = system: COLO 205
NCI-H23 = system: NCI-H23
NCI-H460 = system: NCI-H460
K562 = system: K562
SK-MEL-28 = system: SK-MEL-28
SF-295 = system: SF-295
MDA-MB-231 = system: MDA-MB-231

| SMILES | GI50 (M19-MEL) | GI50 (HCT-15) | GI50 (SF-539) | GI50 (SK-MEL-5) | GI50 (IGROV-1) | GI50 (TK-10) | GI50 (UO-31) | GI50 (EKVX) | GI50 (SNB-78) | GI50 (NCI-H522) | GI50 (RPMI-8226) | GI50 (SK-MEL-2) | GI50 (A549) | GI50 (COLO 205) | GI50 (NCI-H23) | GI50 (NCI-H460) | GI50 (K562) | GI50 (SK-MEL-28) | GI50 (SF-295) | GI50 (MDA-MB-231) |
| --- | --- | --- | --- | --- | --- | --- | --- | --- | --- | --- | --- | --- | --- | --- | --- | --- | --- | --- | --- | --- |
| COC(=O)C(C(=O)C(N)=O)c1csc(-n2nc(-c3ccccc3)cc2-c2ccccc2)n1 (stereo not drawn) | > 31.6 µM (inactive) | > 31.6 µM | > 31.6 µM (inactive) | 28.7 µM (inactive) | 17.3 µM (inactive) | 21.5 µM (inactive) | 13.5 µM (inactive) | 13.9 µM (inactive) | > 31.6 µM (inactive) | 27.6 µM (inactive) | > 31.6 µM (inactive) | > 31.6 µM (inactive) | > 31.6 µM (inactive) | 26.8 µM (inactive) | > 100 µM (inactive) | > 31.6 µM (inactive) | 23.8 µM (inactive) | > 31.6 µM (inactive) | > 87.9 µM (inactive) | – |
| CN(C)C[C@H]1CC[C@@H](CN(C)C)C1=O | 8.83 µM (inactive) | 4.65 µM | 10 µM (inactive) | 11.6 µM (inactive) | 15.2 µM (inactive) | 8.11 µM (inactive) | 14.9 µM (inactive) | 16.7 µM (inactive) | 10.3 µM (inactive) | 0.453 µM (active) | 0.535 µM (active) | 7.73 µM (inactive) | > 50 µM (inactive) | 3.67 µM (inactive) | 9.4 µM (inactive) | 19.5 µM (inactive) | 0.564 µM (active) | 5.15 µM (inactive) | 48.9 µM (inactive) | 9.86 µM (inactive) |
| CC1=NN(C(=O)c2ccc(Cl)cc2)C(=O)/C1=C/c1ccccc1O | > 100 µM (inactive) | > 100 µM | > 100 µM (inactive) | > 100 µM (inactive) | > 100 µM (inactive) | > 100 µM (inactive) | > 100 µM (inactive) | > 100 µM (inactive) | > 100 µM (inactive) | > 100 µM (inactive) | > 100 µM (inactive) | > 100 µM (inactive) | > 100 µM (inactive) | > 100 µM (inactive) | > 100 µM (inactive) | > 100 µM (inactive) | > 100 µM (inactive) | > 100 µM (inactive) | > 100 µM (inactive) | – |
| Nc1ccc(S(=O)(=O)Nc2cnc3c(Cl)cccc3n2)cc1 [CHLORSULFAQUINOXALINE] | 232 µM (inactive) | 53 µM | 126 µM (inactive) | 144 µM (inactive) | 2.58 µM (inactive) | 41.6 µM (inactive) | 151 µM (inactive) | 222 µM (inactive) | 151 µM (inactive) | 29 µM (inactive) | 129 µM (inactive) | 226 µM (inactive) | 117 µM (inactive) | 23.9 µM (inactive) | 163 µM (inactive) | 129 µM (inactive) | 23.2 µM (inactive) | 151 µM (inactive) | 31.4 µM (inactive) | > 69.7 µM (inactive) |
